Counter-ions that a name gives are not always drawn.
How the values were obtained:
[1] = target: T1, glycine binding pocket of the NMDA receptor (Rattus norvegicus, UniProt P35439); test: [3H]MDL-105,519 displacement studies (rat cortical membranes); conditions: displacement of 2 nM [3H]-MDL-105,519, rat cortical membranes; read-out: NMDA-MDL 105519-r-CTX - IC50
T1 construct: For isolation of the cell membranes, the cortices are homogenized; from tissue; host or cells: rat cerebral cortex membranes (male Sprague-Dawley)
Description: Anaesthetised male Sprague-Dawley rats (200-250 g, Janvier, Le Genest-Isle, France) are decapitated and their brains removed rapidly. […] For isolation of the cell membranes, the cortices are homogenized in 20 volumes of ice-cold 0.32 M sucrose (Sigma-Aldrich, Taufkirchen, Germany) using a glass-Teflon homogenizer. The homogenate is centrifuged at 1000×g for 10 minutes, the pellet is discarded and the supernatant centrifuged at 20,000×g for 20 minutes. The resulting pellet is re-suspended in 20 volumes of distilled water and centrifuged for 20 minutes at 8000×g. The supernatant and the buffy coat are then centrifuged three times (48,000×g for 20 minutes) in the presence of 50 mM Tris-HCl, pH 8.0 (assay buffer). All centrifugation steps are carried out at 4° C. After resuspension in 5 volumes of 50 mM Tris-HCl, pH 7.5, the membrane suspension is frozen rapidly at −80° C. On the day of assay, the membranes are thawed and washed four times by resuspension in 50 mM Tris-HCl, pH 7.5, and centrifugation at 48,000×g for 20 minutes. The final pellet is suspended in assay buffer. […] The final protein concentration used for our studies is 400 μg/ml.
A robotic system designed for binding assays (Tecan Deutschland GmbH, Crailsheim, Germany) is loaded with the membrane solution, solutions for bound control (buffer/DMSO 20%), unlabeled glycine (1 mM) for evaluation of non-specific binding, all compounds to be tested (at 20-fold concentrations), radioligand and respective 96-well plates.
The protein/receptor concentration is held constant whereas the amount of specific bound radioligand is determined using increasing concentrations of ligand.
Firstly, the assay plates are loaded with membrane solution and are shaken at 4° C. The mother plates are then prepared by pipetting the compounds into assay buffer/20% DMSO to obtain the desired final concentrations (dose response curve with five different concentrations, e.g. 10, 3, 1, 0.3, and 0.1 μM). After transferring radioligand into the assay plates, the compounds are added (including the bound and the non-specific binding control). The final DMSO concentration is 1%. The assay plates are incubated and shaken at 4° C. for 1 h, before the mixture is exhausted as rapidly as possible via a vacuum manifold using the Multiscreen HTS glass fibre (type B) filter plates (Millipore, Schwalbach, Germany) under a constant vacuum of 450 mbar. The membranes are washed four times with cold assay buffer ([…]). 50 μL of Ultima Gold scintillation cocktail (PerkinElmer, Rodgau-Jügesheim, Germany) is added to the wet filter plates and incubated at room temperature overnight before counting the disintegration per minutes using a liquid scintillation counter (MicroBeta, PerkinElmer, Rodgau-Jügesheim, Germany).
The residual radioactivity after displacement of the test compound (n=5) is then corrected with respect to the set controls.

[2] = target: NMDA receptor glycine B site (Rattus norvegicus, UniProt P35439); test: Calcium FLIPR studies, rat cortical neurons (NMDA/D-Serine induced intracellular calcium); format: cell-based; set-up: Primary neurons are prepared from cortices of embryonal rats at day 17 of pregnancy; endogenous in cells; host or cells: primary rat cortical neurons (E17, 11-13 DIV); conditions: rat cortical neurons; stimulation with 30 μM NMDA and 1 μM D-Serine; antagonist pre-incubated 10 min; read-out: NMDA-FLIPR-rCTX-NAM - IC50
Description: Antagonistic potencies of the test compounds are functionally evaluated using electrophysiological whole cell patch-clamp recordings and/or fluorometric intracellular Ca^2+-imaging (FLIPR) screens.
Sprague-Dawley rat embryos (E 17) are decapitated and neocortices are dissected, trypsinized and carefully triturated. The cell suspension is plated on poly-D-lysine pre-coated 96-well Plates (Greiner, Frickenhausen, Germany) at a cell density of 55.000 cells/well. The neurons are cultivated in Neurobasal media containing B27-Supplement and […] L-Glutamine (Biochrom) at 37° C. in a humidified atmosphere of 5% CO2/95% air. Medium is exchanged completely at day 4 and to 50% on day 7. At the time of experiments neurons are 11-13 days in vitro.
The increase of intracellular calcium after stimulation with 30 μM NMDA and 1 μM D-Serine is measured using the fluorometric imaging plate reader (FLIPR) and the Calcium-4-Kit (both Molecular Devices, Ismaning, Germany). Prior to addition of agonist or antagonist (5 different concentrations, n=5) the medium is aspirated and cells are washed once before loading with 150 μL of loading buffer (1 h at room temperature), consisting of Ca-4 sensitive dye reconstituted in extracellular bath solution, pH 7.3. Subsequently, plates are transferred to FLIPR to detect increases in intracellular calcium after the addition of agonist, measured as relative fluorescence units (RFU). Antagonists are pre-incubated with the cells for 10 min at room temperature before the addition of the agonist and co-agonist.
The fluorescence signal increase after addition of agonist reflects the increase of intracellular calcium. Inconsistencies in the amount of cells per well are normalised by using the spatial uniformity correction of the FLIPR software (Screenworks, Molecular Devices). The mean of replicated temporal data (n=5) is calculated and used for graphical representation. For the evaluation of the antagonistic potency, the calcium changes in response to different concentrations of antagonist are determined using an area under the curve (AUC) calculation. All responses (RFU-values) are determined as percentage of control (=maximum response at 30 μM NMDA and 1 μM D-Serine). IC50 values are calculated according the four parameter logistic equation using GraFit (Erithacus Software).

SMILES	melting point	IC50 [1]	IC50 [2]
CNC(=O)COc1cc(CN)ccc1NC(=O)COc1cc(C(=O)O)cc2cc(Cl)cc(Cl)c12 (as salt: hydrochloride) [Example 116, 4-[(4-Aminomethyl-2-methylcarbamoylmethoxy-phenylcarbamoyl)-methoxy]-5,7-dichloro-naphthalene-2-carboxylic acid]	233 to 235 °C	–	–
NCc1cc(OCC(=O)O)ccc1NC(=O)COc1cc(C(=O)O)cc2cc(Cl)cc(Cl)c12 (as salt: trifluoroacetate) [Example 97, 4-[(2-Aminomethyl-4-carboxymethoxy-phenylcarbamoyl)-methoxy]-5,7-dichloro-naphthalene-2-carboxylic acid]	> 169 °C	–	–
CNC(=O)COc1ccccc1NC(=O)COc1cc(C(=O)O)cc2cc(Cl)cc(Cl)c12 [Example 91, 5,7-Dichloro-4-[(2-methylcarbamoylmethoxy-phenylcarbamoyl)-methoxy]-naphthalene-2-carboxylic acid]	–	1270 nM	10800 nM
O=C(COc1cc(C(=O)O)cc2cc(Cl)cc(Cl)c12)Nc1cccc(OCc2nnn[nH]2)c1 [Example 92, 5,7-Dichloro-4-{[3-(1H-tetrazol-5-ylmethoxy)-phenylcarbamoyl]-methoxy}-naphthalene-2-carboxylic acid]	–	656 nM	3840 nM
NC(=O)COc1ccccc1NC(=O)COc1cc(C(=O)O)cc2cc(Cl)cc(Cl)c12 [Example 95, 4-[(2-Carbamoylmethoxy-phenylcarbamoyl)-methoxy]-5,7-dichloro-naphthalene-2-carboxylic acid]	–	641 nM	7170 nM
O=C(O)c1cc(OCC(=O)N2c3ccccc3CC2c2nnn[nH]2)c2c(Cl)cc(Cl)cc2c1 (stereo not shown) [Example 99, 5,7-Dichloro-4-{2-oxo-2-[2-(1H-tetrazol-5-yl)-2,3-dihydro-indol-1-yl]-ethoxy}-naphthalene-2-carboxylic acid]	–	909 nM	5950 nM
O=C(COc1cc(C(=O)O)cc2cc(Cl)cc(Cl)c12)NCc1cccc(-c2nnn[nH]2)c1 [Example 107, 5,7-Dichloro-4-{[3-(1H-tetrazol-5-yl)-benzylcarbamoyl]-methoxy}-naphthalene-2-carboxylic acid]	–	139 nM	1440 nM
O=C(COc1cc(C(=O)O)cc2cc(Cl)cc(Cl)c12)NCc1ccccc1Cc1nnn[nH]1 [Example 118, 5,7-Dichloro-4-{[2-(1H-tetrazol-5-ylmethyl)-benzylcarbamoyl]-methoxy}-naphthalene-2-carboxylic acid]	239 to 240 °C	–	–
O=C(COc1cc(C(=O)O)cc2cc(Cl)cc(Cl)c12)NCc1cccc(Cc2nnn[nH]2)c1 [Example 119, 5,7-Dichloro-4-{[3-(1H-tetrazol-5-ylmethyl)-benzylcarbamoyl]-methoxy}-naphthalene-2-carboxylic acid]	243 to 244 °C	–	–
O=C(COc1cc(C(=O)O)cc2cc(Cl)cc(Cl)c12)NCc1ccc(Cc2nnn[nH]2)cc1 [Example 120, 5,7-Dichloro-4-{[4-(1H-tetrazol-5-ylmethyl)-benzylcarbamoyl]-methoxy}-naphthalene-2-carboxylic acid]	247 to 248 °C	–	–
O=C(O)COc1cc(CO)ccc1NC(=O)COc1cc(C(=O)O)cc2cc(Cl)cc(Cl)c12 [Example 122, 4-[(2-Carboxymethoxy-4-hydroxymethyl-phenylcarbamoyl)-methoxy]-5,7-dichloro-naphthalene-2-carboxylic acid]	244 to 245 °C	–	–
O=C(COc1cc(C(=O)O)cc2cc(Cl)cc(Cl)c12)NCc1ccc(OCc2nnn[nH]2)cc1 [Example 126, 5,7-Dichloro-4-{[4-(1H-tetrazol-5-ylmethoxy)-benzylcarbamoyl]-methoxy}-naphthalene-2-carboxylic acid]	> 236 °C (dec.)	–	–
COCC(Oc1cc(C(=O)O)cc2cc(Cl)cc(Cl)c12)C(=O)Nc1ccccc1OCC(=O)O (stereo not shown) [Example 131, 4-[1-(2-Carboxymethoxy-phenylcarbamoyl)-2-methoxy-ethoxy]-5,7-dichloro-naphthalene-2-carboxylic acid]	224 to 225 °C	–	–
O=C(COc1ccccc1NC(=O)COc1cc(C(=O)O)cc2cc(Cl)cc(Cl)c12)NCCO [Example 134, 5,7-Dichloro-4-({2-[(2-hydroxy-ethylcarbamoyl)-methoxy]-phenylcarbamoyl}-methoxy)-naphthalene-2-carboxylic acid]	217 to 218 °C	–	–

Further lines, results first:

melting point	IC50 [1]	IC50 [2]	SMILES
–	550 nM	2680 nM	O=C(COc1cc(C(=O)O)cc2cc(Cl)cc(Cl)c12)Nc1cccc(Cc2nnn[nH]2)c1 [Example 90, 5,7-Dichloro-4-{[3-(1H-tetrazol-5-ylmethyl)-phenylcarbamoyl]-methoxy}naphthalene-2-carboxylic acid]
–	559 nM	4100 nM	O=C(COc1cc(C(=O)O)cc2cc(Cl)cc(Cl)c12)Nc1ccccc1Cc1nnn[nH]1 [Example 100, 5,7-Dichloro-4-{[2-(1H-tetrazol-5-ylmethyl)-phenylcarbamoyl]-methoxy}-naphthalene-2-carboxylic acid]
–	344 nM	2270 nM	O=C(COc1cc(C(=O)O)cc2cc(Cl)cc(Cl)c12)Nc1cccc(-c2nnn[nH]2)c1 [Example 101, 5,7-Dichloro-4-{[3-(1H-tetrazol-5-yl)-phenylcarbamoyl]-methoxy}-naphthalene-2-carboxylic acid]
–	186 nM	1390 nM	O=C(COc1cc(C(=O)O)cc2cc(Cl)cc(Cl)c12)NCc1cccnc1 [Example 104, 5,7-Dichloro-4-{[(pyridin-3-ylmethyl)-carbamoyl]-methoxy}-naphthalene-2-carboxylic acid]
–	1030 nM	7090 nM	O=C(COc1cc(C(=O)O)cc2cc(Cl)cc(Cl)c12)NCc1ccncc1 [Example 105, 5,7-Dichloro-4-{[(pyridin-4-ylmethyl)-carbamoyl]-methoxy}-naphthalene-2-carboxylic acid]
242 to 243 °C	–	–	CN1CCc2sc(NC(=O)COc3cc(C(=O)O)cc4cc(Cl)cc(Cl)c34)nc2C1 [Example 132, 5,7-Dichloro-4-[(5-methyl-4,5,6,7-tetrahydro-thiazolo[4,5-c]pyridin-2-ylcarbamoyl)-methoxy]-naphthalene-2-carboxylic acid]
> 250 °C	–	–	Cc1cnc(NC(=O)COc2cc(C(=O)O)cc3cc(Cl)cc(Cl)c23)s1 [Example 133, 5,7-Dichloro-4-[(5-methyl-thiazol-2-ylcarbamoyl)-methoxy]-naphthalene-2-carboxylic acid]

From US20120220577A1, “GLYCINE B ANTAGONISTS” (Merz Pharma GmbH & Co KgaA, priority 2009, published 2012)
